Data set [1] deals with TGFβR2 (Homo sapiens (Human), UniProt P37173). Kind of data set: TGFβR2 kinase inhibition assay (ADP-Glo). It counts as biochemical. To be noted: 10 uM ATP, 120 min room temperature. The protocol:
The TGFβR2 enzyme reaction was carried out as follows: 50 nL of compound in DMSO (or DMSO controls) were stamped into 384 white, low-volume plates. 2.5 μL of 2× enzyme solution (final enzyme concentration was 3 ng/uL in 40 mMTris, 7.5; 20 mM MgCl2; 0.1 mg/mL BSA; 1 mM DTT) was dispensed into assay plate. The plate was then sealed and spun at 1000 rpm for 30 s and incubated at room temperature for 10 min. Followed by addition of 2.5 μL of 2× substrate solution that contains both ATP (to make a final concentration of 10 uM) and TGFβR2 substrate (final concentration of 0.2 ug/uL). The plate was then sealed and spun at 1000 rpm for 30 s and the reaction was then incubated at room temperature for 120 min. After that 5 μL ADP-Glo™ Reagent was added into the assay wells to stop the reaction and deplete unconsumed ATP for 40 min at room temperature; then, 10 μL of Detection Reagent was added into the assay wells, followed by 40 min incubation to develop luminescence. The luminescence signal was then collected on Envision 2104 plate reader.
A general note: ADP-Glo turns the ADP formed in a reaction into a luminescent signal.

For data set [2], the target named is TGFβR1 (Homo sapiens (Human), UniProt P36897). Description: TGFβR1 kinase inhibition assay (ADP-Glo Kinase Assay). It counts as biochemical. To be noted: 40 nM TGFβR1 in 2x enzyme mix, 5.4 μM ATP in 2x substrate mix, 120 min RT. The protocol:
TGFβR1 kinase assay was performed according to the instruction manual of the ADP-Glo™ Kinase Assay kit provided by Promega. Prepare 1× Kinase buffer (50 mM Tris pH7.5, 0.1% BSA, 10 mM MgCl2, 1 mM DTT). Before activation reaction was started, Compounds were dissolved in DMSO and make 100× solution with 3-fold serial dilution for a total of 10 concentrations. Transfer 50 nL compounds to 384-well plate according to plate map using the automated liquid handler. […] Add 5 μL ADP-Glo Reagent to terminate the kinase reaction and deplete the remaining ATP, incubate at RT for 60 minutes. Add 10 μL Kinase Detection Reagent to convert ADP to ATP and allow the newly synthesized ATP to be measured using a luciferin reaction, incubate at RT for 30 minutes. Collect luminescence data with Envision.

A short description of data set [3]: Human hepatocyte clearance study. It counts as in vitro ADME. To be noted: pooled cryopreserved human hepatocytes (suspension). The method, then:
(§1) The in vitro human hepatocyte clearance of compounds described here was studied using pooled human hepatocytes purchased from BioreclamationIVT (Westbury, N.Y., Cat #X008001, Lot #TQJ). The assay was conducted according to manufacturer's instruction. Briefly, 10 mM stock solutions of test compounds and positive control (Verapamil) were prepared in 100% DMSO. Thawing media (50 mL) used in the study consists of: 31 mL Williams E medium (GIBCO Cat #12551-032); 15 mL isotonic percoll (GE Healthcare Cat #17-0891-09); 500 uL 100× GlutaMax (GIBCO Cat #35050); 750 uL HEPES (GIBCO Cat #15630-080); 2.5 mL FBS (Corning Cat #35-076-CVR); 50 uL human insulin (GIBCO Cat #12585-014) and 5 uL dexamethasone (NICPBP). Incubation media is made of Williams E medium supplemented with 1× GlutaMax. Both thawing medium and incubation medium (serum-free) were placed in a 37° C. water bath for at least 15 minutes prior to use. Compound stock solutions were diluted to 100 μM by combining 198 μL of 50% acetonitrle/50% water and 2 μL of 10 mM stock solution. Verapamil was use as positive control in the assay. Vials of cryopreserved hepatocytes were removed from storage and thawed in a 37° C. water bath with gentle shaking. Contents of the vial were poured into the 50 mL thawing medium conical tube. Vials were centrifuged at 100 g for 10 minutes at room temperature. Thawing medium was aspirated and hepatocytes were re-suspended with serum-free incubation medium to yield ˜1.5×10^6 cells/mL. Hepatocyte viability and density were counted using a Trypan Blue exclusion, and then cells were diluted with serum-free incubation medium to a working cell density of 0.5×10^6 viable cells/mL. Then, a portion of the hepatocytes at 0.5×10^6 viable cells/mL was boiled for 5 minutes prior to adding to the plate as negative control to eliminate the enzymatic activity so that little or no substrate turnover should be observed. The boiled hepatocytes were used to prepare negative samples. Aliquots of 198 μL hepatocytes were dispensed into each well of a 96-well non-coated plate. The plate was placed in the incubator on an orbital shaker at 500 rpm for approximately 10 minutes. Aliquots of 2 μL of the 100 μM test compound or positive control were added into respective wells of the non-coated 96-well plate to start the reaction. This assay was performed in duplicate. The plate was incubated in the incubator on an orbital shaker at 500 rpm for the designated time points. Twenty-five microliter of contents were transferred and mixed with 6 volumes (150 μL) of cold acetonitrile with IS (200 nM imipramine, 200 nM labetalol and 200 nM diclofenac) to terminate the reaction at time points of 0, 15, 30, 60, 90 and 120 minutes. Samples were centrifuged at 3,220 g for 25 minutes and aliquots of 150 μL of the supernatants were used for LC-MS/MS analysis. For data analysis, all calculations were carried out using Microsoft Excel. Peak areas were determined from extracted ion chromatograms. The in vitro half-life (t1/2) of parent compound was determined by regression analysis of the percent parent disappearance vs. time curve. The in vitro half-life (in vitro ti) was determined from the slope value: in vitro t1/2=0.693/k. […] Scaling factors for in vivo intrinsic clearance prediction using human hepatocytes are listed as: liver weight (g liver/kg body weight): 25.7; hepatocyte concentration (10^6 cells/g liver): 99; scaling factor: 2544.3.

Data set [4] deals with pooled human hepatocytes. Description: Human hepatocyte clearance study. It counts as in vitro ADME. To be noted: human hepatocytes, 0.5×10^6 viable cells/mL, 120 min. The protocol:
as §1

In data set [5] the test system is P-glycoprotein (MDR1). Kind of data set: P-glycoprotein substrate potential / permeability in MDR1-transfected MDCK cells. It counts as in vitro ADME. To be noted: dog, pH 7.4. The protocol: MDCK-MDR1 cells were seeded into 96-well HTS Transwell plate at the density of 5.45×10^5/cm^2. Cells were cultivated for 4-7 days before the transport assay. Transepithelial electrical resistance (TEER) of MDCK-MDR1 monolayer was measured before the experiment with the Millicell Epithelial Volt-Ohm measuring system.
Transport assay: Cell monolayers were pre-incubated in transport medium (TM, HBSS with 25 mM HEPES, pH 7.4) for 30 min at 37° C. After preincubation, the study was initiated by adding the test compound to the donor side and TM to the receiver side. Compound transport was assessed at 1 μM in two directions (apical, AP to basolateral, BL and BL to AP) and the study was carried out in the presence and absence of P-gp inhibitor verapamil in both AP and BL compartments. After two hours incubation, aliquots of 50 μL from donor or receiver side were removed and mixed with 4 volumes of acetonitrile containing internal standards (200 nM alprazolam, 200 nM labetalol, 2 μM ketoprofen). Samples were analyzed by UPLC-MS/MS. All incubations were performed in duplicate. After the transport experiment, Lucifer Yellow leakage was measured in a fluorescence plate reader at 485 nm excitation and 530 nm emission.
Data Analysis: All calculations were carried out using Microsoft Excel. Peak areas are determined from extracted ion chromatograms.
The apparent permeability coefficient (Papp), in units of centimeter per second, was calculated for MDCK-MDR1 drug transport assays using the following equation: […]
Where VA is the volume (in mL) in the acceptor well, Area is the surface area of the membrane (0.143 cm2 for Transwell-96 Well Permeable Supports), and time is the total transport time in seconds.
The efflux ratio was determined using the following equation: […]
Where Papp (B-A) indicates the apparent permeability coefficient in basolateral to apical direction, and Papp (A-B) indicates the apparent permeability coefficient in apical to basolateral direction.

The structures appear in SMILES notation. pIC50: −log10 of the molar value.

Chain of TGFβR2 (P37173 23-567): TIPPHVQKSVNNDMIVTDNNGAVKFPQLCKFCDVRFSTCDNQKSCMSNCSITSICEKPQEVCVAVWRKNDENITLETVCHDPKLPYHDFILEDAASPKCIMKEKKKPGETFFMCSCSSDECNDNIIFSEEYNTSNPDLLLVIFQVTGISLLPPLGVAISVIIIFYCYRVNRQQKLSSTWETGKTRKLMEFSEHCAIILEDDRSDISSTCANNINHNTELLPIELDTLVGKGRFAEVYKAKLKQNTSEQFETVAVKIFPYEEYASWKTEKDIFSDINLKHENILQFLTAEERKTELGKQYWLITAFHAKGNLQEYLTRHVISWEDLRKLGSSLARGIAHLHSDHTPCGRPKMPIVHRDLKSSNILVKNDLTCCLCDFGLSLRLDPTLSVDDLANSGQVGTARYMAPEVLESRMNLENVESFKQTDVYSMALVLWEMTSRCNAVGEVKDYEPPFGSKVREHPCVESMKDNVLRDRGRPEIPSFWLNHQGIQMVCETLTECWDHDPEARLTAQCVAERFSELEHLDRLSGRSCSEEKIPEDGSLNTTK
Chain of TGFβR1 (P36897 34-503): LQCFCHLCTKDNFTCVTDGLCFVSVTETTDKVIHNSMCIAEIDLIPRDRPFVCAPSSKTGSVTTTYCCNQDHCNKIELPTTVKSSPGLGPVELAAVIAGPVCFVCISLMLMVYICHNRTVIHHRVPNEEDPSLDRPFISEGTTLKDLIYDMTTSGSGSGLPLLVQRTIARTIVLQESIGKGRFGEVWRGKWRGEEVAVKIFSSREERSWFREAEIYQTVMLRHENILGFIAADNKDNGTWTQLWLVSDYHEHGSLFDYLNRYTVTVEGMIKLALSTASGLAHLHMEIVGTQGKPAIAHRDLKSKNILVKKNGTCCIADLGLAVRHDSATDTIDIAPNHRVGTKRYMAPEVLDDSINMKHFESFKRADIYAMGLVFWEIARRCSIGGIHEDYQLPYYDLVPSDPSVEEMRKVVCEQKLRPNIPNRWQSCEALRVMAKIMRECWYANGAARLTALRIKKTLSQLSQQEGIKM

Consider `N#Cc1ccc(Nc2cc(Oc3cc(C(F)(F)F)nn3C3CCOCC3)ccn2)cc1` [Compound 10], for which the pIC50 (commonly the negative decadic logarithm of the IC50, by convention in mol/L) is below 4.00 in data set [1] and 6.88 in data set [2].
In the case of `NS(=O)(=O)c1ccc(Nc2cc(Oc3cc(C4CC4)nn3C3CCOCC3)ccn2)cc1` [Compound 14], the results for the pIC50 in data set [1] and in data set [2] were below 4.00 and 7.43, respectively.
`CC(C)(C)n1nc(C2CC2)cc1Oc1ccnc(Nc2ccc(S(N)(=O)=O)cc2)c1` [Compound 15]: the values for the pIC50 in data set [1] and in data set [2] were below 4.00 and 7.03, respectively.
Regarding `CC(C)(O)c1cc(Nc2cc(Oc3cc(C(F)(F)F)nn3C(C)(C)C)ccn2)ccn1` [Compound 16], the pIC50 in data set [1] is 4.47; in data set [2] it was 7.47.
As to `CC(C)(O)c1cc(Nc2cc(Oc3cc(C(F)(F)F)nn3-c3ccccc3)ccn2)ccn1` [Compound 17], the pIC50 is 6.00 in data set [1] and 7.92 in data set [2].
On the same counts, the results for `CC(C)(O)c1cc(Nc2cc(Oc3cc(C4CC4)nn3CC(F)(F)F)ccn2)ccn1` [Compound 21] are below 4.00 and 7.43.
Turning to `Cn1nc(C(F)(F)F)cc1Oc1ccnc(Nc2ccnc(C(C)(C)O)c2)c1` [Compound 23], the hepatocyte CLint at 1 µM in data set [3] (human, read-out: Human In vitro Clint) turned out to be 2.2 µL/min/1e6 cells. In addition, in data set [3] (human, read-out: Human In vitro T1/2), the half-life at 1 µM worked out at 10.4 h. Also, in data set [3] (human hepatocytes, scaling factor 2544.3, read-out: Human Scale-up Clint), the CLint scaled at 1 µM amounted to 5.6 mL/min/kg. The “Human Hepatocyte Remaining Percentage @ 120 min” value in data set [4] turned out to be 88%. This molecule showed a pIC50 in data set [2] of 7.42.
Consider `CC(C)(O)c1cc(Nc2cc(Oc3cc(C4CC4)nn3[C@H]3C[C@H]4CC[C@@H](C3)O4)ccn2)ccn1` [Compound 28], for which the pIC50 in data set [1] is 4.44; in data set [2] it was 7.46.
With `CC(C)(O)c1cc(Nc2cc(Oc3cc(C4CC4)nn3[C@@H]3C[C@H]4CC[C@@H](C3)O4)ccn2)ccn1` [Compound 29], the pIC50 in data set [1] was 4.05; in data set [2], 7.72.
For the molecule `CC(C)(O)c1cc(Nc2cc(Oc3cc(C(F)(F)F)nn3C3CCCNC3)ccn2)ccn1` (stereo not drawn) [Compound 33], the pIC50 in data set [1] is below 4.00; in data set [2] it was 7.31.
On to `Cc1ccc(-n2nc(C(F)(F)F)cc2Oc2ccnc(Nc3ccnc(C(C)(C)O)c3)c2)cc1` [Compound 34], for which the pIC50 in data set [1] is 4.77; in data set [2] it was 7.38.
On the same counts, the results for `CC(C)(O)c1cc(Nc2cc(Oc3cc(C(F)(F)F)nn3-c3ccccc3F)ccn2)ccn1` [Compound 38] are 4.82 and 7.74.
As for `CC(C)(O)c1cc(Nc2cc(Oc3cc(C(F)(F)F)nn3-c3ccccn3)ccn2)ccn1` [Compound 41], the figures for the pIC50 in data set [1] and in data set [2] were 4.82 and 7.92, respectively. For the same molecule, the Papp A→B – broadly, the apparent permeability from the apical to the basolateral side of a cell layer – at 2 h, 1 µM in data set [5] (MDCK-MDR1, 1 μM, apical to basolateral, two hours) turned out to be 3.63 ×10⁻⁶ cm/s. For the same molecule, the Papp B→A (commonly the apparent permeability from the basolateral to the apical side of a cell layer) at 2 h, 1 µM in data set [5] (MDCK-MDR1, 1 μM, basolateral to apical, two hours) was found to be 4.88 ×10⁻⁶ cm/s. The efflux ratio (in general, a quotient of directional permeabilities that is used to spot active efflux) at 2 h, 1 µM in data set [5] (MDCK-MDR1, Papp (B-A)/Papp (A-B)) worked out at 1.35.
With `CC(C)(O)c1cc(Nc2cc(Oc3cc(C(F)(F)F)nn3-c3c(F)cccc3F)ccn2)ccn1` [Compound 45], the pIC50 was 4.68 in data set [1] and 7.89 in data set [2].
As to `CC(C)(O)c1ccc(Nc2cc(Oc3cc(C(F)(F)F)nn3-c3ccccc3F)ccn2)cn1` [Compound 52], the pIC50 in data set [1] was 4.80; in data set [2], 7.68.
The corresponding values for `CC(C)(O)c1ccc(Nc2cc(Oc3cc(C(F)(F)F)nn3-c3c(F)cccc3F)ccn2)cn1` [Compound 53] are 4.25 and 7.74.
Regarding `Cc1ccc(Oc2ccnc(Nc3ccnc(C(C)(C)O)c3)c2)c(C2CCOCC2)n1` [Compound 55], the pIC50 was 4.82 in data set [1] and 7.46 in data set [2].
`Cc1ccc(Oc2ccnc(Nc3ccnc(C(C)(C)O)c3)c2)c(C2CC2)n1` [Compound 58]: the pIC50 is 4.96 in data set [1] and 7.41 in data set [2].
In the case of `Cc1ccc(Oc2ccnc(Nc3ccc(S(N)(=O)=O)cc3)c2)c(C2CCOCC2)n1` [Compound 59], the pIC50 in data set [1] is 5.00; in data set [2], 7.49.
Take `CC(C)(O)c1cc(Nc2cc(Oc3cn(C4CCC4)nc3C3CCOCC3)ccn2)ccn1` [Compound 67]: the values for the pIC50 in data set [1] and in data set [2] were below 4.00 and 7.29, respectively.
With `CC(C)(O)c1cc(Nc2cc(Oc3cn(C4CCCC4)nc3C3CCOCC3)ccn2)ccn1` [Compound 68], the pIC50 is below 4.00 in data set [1] and 6.20 in data set [2].
On the same counts, the results for `CC(C)(O)c1cc(Nc2cc(Oc3cn(CC(F)(F)F)nc3C3CCOCC3)ccn2)ccn1` [Compound 69] are below 4.00 and 6.34.
`CC1(C)OC(=N)c2ccc(Nc3cc(Oc4cn(C5CC5)nc4C4CCOCC4)ccn3)cc21` [Compound 78]: the pIC50 in data set [1] was below 4.00; in data set [2], 7.66.
Consider `CC1(C)OC(=O)c2ccc(Nc3cc(Oc4cn(C5CC5)nc4C4CCOCC4)ccn3)cc21` [Compound 79], for which the results for the pIC50 in data set [1] and in data set [2] were 4.14 and 7.54, respectively.

Values taken from US11691981B2, “Heterocyclic compounds, preparation methods therefor, and methods of uses thereof” (INVENTISBIO CO., LTD., priority 2019, dated 2023).
